“And” between values parts separate entries of the source, which are not always exact repeats. Identical values can stand only once. “Also recorded” adds a separate entry of the source.
Assays:
NB4 cells [1] = assay: NB4 growth, cell cycle and Annexin V; type: cell-based, human; settings: sodium stibogluconate 250 μg/ml or ATRA 1 μM, 3 days
Method: The NB4 cell line (Lanotte et al., Blood 77, 1080 (1991)) was a gift from Dr. Dan Lindner of the Cleveland Clinic Foundation. […] and U937 cell lines were purchased from American Type Culture Collection (Rockville, Md.). These human […] cell lines were maintained in RPMI 1640 medium supplemented with 10% fetal calf serum (FCS). For cell proliferation assays, cells were cultured at 37° C. in 10% FCS medium containing various amounts of sodium stibogluconate for 6 days. The cell numbers in the cultures were determined by an MTT assay as described previously in Mosmann, J. Immunol. Methods 65, 55 (1983).
The cell cycle was analyzed by flow cytometry after 3 days of culture of NB4 cells in the absence or presence of sodium stibogluconate (250 μg/ml) or ATRA (1 μM). Briefly, the cells were fixed in cold ethanol and incubated for 30 minutes at 4° C. in the dark with a solution of […] propidium iodide, 1 mg/ml RNase and 0.1% NP-40. Analysis was performed immediately after staining using the CELLFIT program (Becton Dickinson, Mountain View, Calif.).
Annexin V staining of exposed membrane phospholipid phosphatidylserine (PS) was done using the Annexin V assay kit (Pharmingen, San Diego, Calif.). Briefly, NB4 cells were cultured in the 10% FCS RPMI 1640 medium in the absence or presence of sodium stibogluconate (250 μg/ml) or ATRA (1 μM) for 3 days. Cells were then washed in PBS twice and stained in binding buffer (10 mM Hepes, pH 7.4; 140 mM NaCl; 2.5 mM CaCl2) containing Annexin V-FITC and propidium iodide for 15 min. The reaction was stopped by adding 10 volumes of binding buffer and analyzed by FACS (Becton Dickinson Facsvantage).

HL-60 cells = assay: HL-60 differentiation (NBT reduction); type: cell-based, human; settings: day 6
Method: (§1) Differentiation of AML cell lines was assessed by their ability to produce superoxide as measured by reduction of NBT to formazan and by analysis of expression of CD11b surface marker by flow cytometry. For NBT reduction, each cell suspension was mixed with an equal volume of solution containing 1 mg/ml of NBT (Sigma) and 2.5 μg/ml of TPA for 30 minutes at 37° C. After incubation, cells containing the purple formazan deposits and cells devoid of NBT-reducing activity (white cells) in each sample were determined by counting 200 cells under microscope. Data is expressed as a percentage based on the following ratio: purple cells/purple+white cells. For analysis of cell surface antigens, cells were exposed to phycoerythrin (PE)-conjugated murine anti-human CD11b (DAKO Corp., Carpinteria, Calif.). Analysis of fluorescence was performed on a FACScan flow cytometer (Beckton Dickinson, Mountain View, Calif.).

NB4 cells [2] = assay: NB4 differentiation (NBT reduction, CD11b); type: cell-based, human
Method: as §1

U937 cells = assay: U937 differentiation (NBT reduction); type: cell-based, human; settings: day 6
Method: as §1

PTP1B = biological target: T1, PTP1B (Homo sapiens, UniProt P18031); assay: in vitro PTPase assay, GST/PTP1B; type: biochemical; settings: 1-1,000 μg/ml
T1 construct: purchased Upstate Biotechnology Inc. (Lake Placid, N.Y.)
T1 sequence (P18031 whole entry, species assumed): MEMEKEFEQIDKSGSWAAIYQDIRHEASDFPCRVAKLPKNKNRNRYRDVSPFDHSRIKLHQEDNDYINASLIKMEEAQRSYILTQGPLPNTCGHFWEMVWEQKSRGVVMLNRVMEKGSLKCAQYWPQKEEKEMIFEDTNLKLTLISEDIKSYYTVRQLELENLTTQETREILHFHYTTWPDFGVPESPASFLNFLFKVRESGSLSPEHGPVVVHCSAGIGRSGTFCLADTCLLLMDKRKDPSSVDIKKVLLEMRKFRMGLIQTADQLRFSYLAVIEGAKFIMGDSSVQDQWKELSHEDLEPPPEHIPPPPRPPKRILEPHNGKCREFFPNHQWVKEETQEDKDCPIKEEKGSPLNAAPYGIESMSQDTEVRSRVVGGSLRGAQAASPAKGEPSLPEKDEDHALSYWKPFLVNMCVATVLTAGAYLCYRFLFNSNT
Method: In vitro PTPase activities were measured using the commercial protein tyrosine phosphatase assay kit (Upstate Biotechnology, Inc. (“UBI”)) following established procedure known to one of skill in the art. This assay measures the in vitro dephosphorylation of a synthetic phosphotyrosine peptide of the sequence Arg-Arg-Leu-Ile-Glu-Asp-Ala-Gle-T- -yr-Ala-Ala-Arg-Gly, wherein the tyrosine is phosphorylated (SEQ ID NO: 3). Briefly, 0.01 μg of GST/PTPase fusion proteins was incubated in 50 μl of Tris buffer (10 mM Tris, pH 7.4) containing different concentrations of inhibitors or chemicals (0-1,000 μg/ml) at 22° C. for 10 minutes, followed by addition of 0.2 mM of the phosphotyrosine peptide and incubation at 22° C. for 18 hours. 100 μl of Malachite Green solution was added and incubated for 5 minutes, and the absorbance at 660 nm was measured after 5 minutes.
In vitro PTPase assays were used to determine the effects of levamisole (Sigma), pentamidine (American Pharmaceutical Partners, Inc.), and ketoconazole (Sigma) on recombinant PTPases, following established procedures (Pathak et al., J. Immunol. 167, 3391 (2001); Pathak et al., Leukemia 16, 2285 (2002), Yi et al., J. Immunol. 169, 5978 (2002)) using a synthetic phosphotyrosine peptide or DiFMUP as the substrate as detailed above in section I.A.2.

[3] = test system: Jak2/Stat5 tyrosine phosphorylation in Baf3 cells; assay: cellular protein tyrosine phosphorylation in Baf3 cells, Western blotting; type: cell-based, murine
Method: For induction of cellular protein phosphorylation by sodium stibogluconate or pervanadate, Baf3 cells were incubated in 0.1% FCS-RPMI 1640 medium at 37° C. for 16 hours. The cells were then washed twice in RPMI 1640 medium and incubated with sodium stibogluconate or pervanandate (0.1 mM) for various times prior to termination by lysing cells in cold lysis buffer (50 mM Tris, pH 7.4; 150 mM NaCl; 0.2 mM Na3VO4; 20 mm NaF; 1% Nonidet P-40; 2 mM PMSF; 20 μg/ml of Aprotinin and 1 mM of sodium molybdic acid). To determine the effect of sodium stibogluconate or potassium antimonyl tartrate on IL-3-induced Jak/Stat phosphorylation, Baf3 cells were deprived of the growth factor for 16 hours in 0.1% FCS RPMI 1640 medium and then incubated with or without sodium stibogluconate or potassium antimonyl tartrate for 10 minutes. IL-3 was next added to the cell suspension and incubated for various times. The Cells were then harvested and lysed in cold lysis buffer at 4° C. for 45 minutes. Total cell lysates (TCL) were separated in SDS-PAGE gels, blotted onto nitrocellulose membrane (Schleicher & Schuell), probed with specific antibodies and detected using an enhanced chemiluminescence kit (ECL, Amersham, Arlington Heights, Ill.).

SHP-1 = biological target: T2, SHP-1 (Mus musculus, UniProt P29351); assay: in vitro PTPase assay, GST/SHP-1; type: biochemical; settings: 1-1,000 μg/ml
T2 construct: made in house
T2 sequence (P29351 whole entry): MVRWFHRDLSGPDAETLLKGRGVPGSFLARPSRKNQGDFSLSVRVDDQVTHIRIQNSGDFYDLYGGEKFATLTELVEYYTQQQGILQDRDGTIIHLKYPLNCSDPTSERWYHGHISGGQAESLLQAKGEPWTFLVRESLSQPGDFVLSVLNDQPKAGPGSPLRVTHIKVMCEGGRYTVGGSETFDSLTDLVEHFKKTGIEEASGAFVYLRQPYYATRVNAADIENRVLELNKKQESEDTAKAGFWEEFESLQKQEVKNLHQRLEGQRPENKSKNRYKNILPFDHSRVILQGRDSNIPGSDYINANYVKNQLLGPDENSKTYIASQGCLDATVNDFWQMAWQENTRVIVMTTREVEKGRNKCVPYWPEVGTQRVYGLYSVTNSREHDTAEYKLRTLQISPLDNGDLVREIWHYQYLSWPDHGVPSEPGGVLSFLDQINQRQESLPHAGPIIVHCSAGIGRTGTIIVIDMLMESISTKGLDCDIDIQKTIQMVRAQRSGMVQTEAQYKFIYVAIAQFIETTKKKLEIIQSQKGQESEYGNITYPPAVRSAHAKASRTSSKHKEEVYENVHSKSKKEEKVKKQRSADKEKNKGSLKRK
Method: In vitro PTPase activities were measured using the commercial protein tyrosine phosphatase assay kit (Upstate Biotechnology, Inc. (“UBI”)) following established procedure known to one of skill in the art. […] Briefly, 0.01 μg of GST/PTPase fusion proteins was incubated in 50 μl of Tris buffer (10 mM Tris, pH 7.4) containing different concentrations of inhibitors or chemicals (0-1,000 μg/ml) at 22° C. for 10 minutes, followed by addition of 0.2 mM of the phosphotyrosine peptide and incubation at 22° […] 100 μl of Malachite Green solution was added and incubated for 5 minutes, and the absorbance at 660 nm was measured after 5 minutes.
To assess the reversibility of inhibition of SHP-1 by PTPase inhibitors, GST/SHP-1 fusion protein bound on glutathione beads were pre-incubated in cold Tris buffer or Tris buffer containing the PTPase inhibitors at 4° C. for 30 minutes. The beads were then either subjected to in vitro PTPase assays or washed 3 times in Tris buffer then subjected to in vitro PTPase assays.
Briefly, individual PTPases (0.1 μg/reaction) in 50 μL of PTPase buffer (50 mM Tris, pH 7.4) were incubated at 22° C. for 10 minutes or as indicated in the absence or presence of inhibitory compounds. Substrates (0.2 mM phosphotyrosine peptide) were then added and allowed to react at 22° C. for 18 hrs. PTPase activity of individual reactions was measured by adding 100 μL of malachite green solution (UBI) and then quantifying the amounts of free phosphate cleaved by the PTPase from the peptide substrate by spectrometry (OD660 nm). […] Relative PTPase activities were calculated based on the formula: (PTPase activity in the presence of an inhibitory compound/PTPase activity in the absence of the compound)× 100%. To assess the reversibility of PTPase inhibition, GST fusion proteins of the PTPases bound on glutathione beads (Pharmacia) were pre-incubated with cold Tris buffer (50 mM Tris, pH 7.0) or Tris buffer containing the inhibitor at 4° C. for 30 minutes. The beads were then washed three times in cold Tris buffer or not washed prior to subjecting to in vitro PTPase assays.

Baf3 cells = assay: Baf3 cell proliferation assay; type: cell-based, murine
Method: The murine hematopoietic cell line Baf3 was maintained in RPMI 1640 medium supplemented with 10% fetal calf serum (FCS) and murine IL-3 (20 units/ml) as described previously in Damen et al., J. Biol. Chem. 270, 23402 (1995). Human myeloid cell line TF-1 was maintained in RPMI 1640 supplemented with 10% FCS and 40 ng/ml of recombinant human GM-CSF as described previously in Thomassen et al., Clin. Immunol. 95, 85 (2000). For cell proliferation assays, cells were washed in 10% FCS medium twice, resuspended in 10% FCS medium, incubated at 37° C. for 16 hours, and then cultured at 37° C. in 10% FCS medium containing various amounts of cytokines, sodium stibogluconate, or potassium antimonyl tartrate for 3-6 days as indicated. The cell numbers in proliferation assays were determined by an MTT assay or by microscopic cell counting as indicated.

Renca tumors = Renca tumors in Balb/c mice; type: in vivo; settings: two weeks; SSG 12 mg/daily i.m., i.p.
Method: Balb/c and athymic nude Balb/c mice (10 weeks old, female, Taconic Farms, Germantown, N.Y.) were inoculated (s.c.) at the flanks with Renca cells (10^6 cells/site). Four days post-inoculation, the mice were subject to no treatment (Control) or treatment with IL-2 ([…]/daily for 5 days, i.p.), SSG (12 mg/daily, i.m. at hip regions) or the combination of the two agents for two weeks. […] The dose of SSG was similar to the effective daily dose of the drug for the treatment of murine leishmaniasis (Murray, H. W., J. D. Berman, and S. D. Wright. 1988. Immunochemotherapy for intracellular Leishmania donovani infection: gamma interferon plus pentavalent antimony. J Infect Dis 157:973). Tumor volume was measured during the study period and calculated using the formula for a prolate spheroid (V=4/3×a2b) (Lindner, D. J., E. C. Borden, and D. V. Kalvakolanu. 1997. Synergistic antitumor effects of a combination of interferons and retinoic acid on human tumor cells in vitro and in vivo. Clin Cancer Res 3:931). Student's t test was used for assessing the significance of tumor volume differences among differential treatment groups. Mouse viability (daily) and body weights (weekly) were also recorded during the study period. At the end of the study, Renca tumors and major internal organs (heart, kidney, liver, lung and spleen) were harvested for histology and immunohistochemistry analysis.

[4] = test system: tumor-infiltrating and spleen immune cells (F4/80+, CD4+, CD8+); assay: immunohistochemistry of Renca tumors and spleen; type: in vivo, Balb/c mice; settings: Renca tumors, end of treatment
Method: Major internal organs and Renca tumors harvested from mice were fixed in 10% formalin or snap frozen in liquid nitrogen. H & E-stained tissue sections of the fixed samples were prepared and evaluated by microscopy as described previously (Yi, T., M. K. Pathak, D. J. Lindner, M. E. Ketterer, C. Farver, and E. C. Borden. 2002. Anticancer activity of sodium stibogluconate in synergy with IFNs. J Immunol 169:5978). Preparation of frozen tissue sections and immunohistochemistry were performed following established procedures (Joliat, M. J., P. A. Lang, B. L. Lyons, L. Burzenski, M. A. Lynes, T. Yi, J. P. Sundberg, and L. D. Shultz. 2002. Absence of CD5 dramatically reduces progression of pulmonary inflammatory lesions in SHP-1 protein-tyrosine phosphatase-deficient ‘viable motheaten’ mice. J Autoimmun 18:105). The antibodies used for immunohistochemistry were anti-CD4 (rat mAb, clone GK1.5, BD Biosciences, Franklin Lakes, N.J.), anti-CD8 (rat mAb, clone 53-6.7.5, BD Biosciences, Franklin Lakes, N.J.), anti-F4/80 (rat mAb, clone A3-1, Serotec, Oxford, UK) and anti-Asialo GM1 (rabbit polyclonal, Cedarlane, Hornby, Canada). […] Tissue sections of 2 mice/group were evaluated. The number of immune cells was semi-quantified based on the following scheme: […], 0-1 positive cells/40×field; +, 2-5 positive cells/40×field; ++, 6-10 positive cells/40×field, etc.

[5] = sodium stibogluconate 400 μg/ml, GM-CSF 25 ng/ml, ATRA

Compound: CC1=C(/C=C/C(C)=C/C=C/C(C)=C/C(=O)O)C(C)(C)CCC1 [ATRA, All-trans-retinoic acid]
- cell cycle of NB4 cells (NB4 cells [1]): arrested at GI phase
- NBT-positive (differentiated) HL-60 cells (HL-60 cells; [5]): 90%
- NB4 differentiation by short exposure versus long term exposure (NB4 cells [2]; ATRA): modest
- NBT-positive (differentiated) U937 cells (U937 cells; [5]): 72% and 73%

Compound: O.O.O.O=C([O-])[C@H]([O-])[C@@H]([O-])C(=O)[O-].O=C([O-])[C@H]([O-])[C@@H]([O-])C(=O)[O-].[K+].[K+].[Sb+3].[Sb+3] [potassium antimonyl tartrate]
- inhibition of PTP1B (PTP1B): no detectable inhibition
- IL-3-induced Stat5 phosphorylation [3]: failed to enhance IL-3-induced Stat5 phosphorylation
- inhibition of SHP-1 (SHP-1): no detectable inhibition
- IL-3-induced proliferation of Baf3 cells (Baf3 cells): failed to enhance
- toxicity against Baf3 cells (Baf3 cells): marked toxicity

Compound: GM-CSF: recombinant human granulocyte/macrophage colony stimulating factor
- maximal increase of NBT-positive HL-60 cells (HL-60 cells; GM-CSF alone 25 ng/ml): 8-10%
- effect on NB-4 cell differentiation (NB4 cells [2]; GM-CSF alone): no detectable effect
- maximal increase of NBT-positive U937 cells (U937 cells; GM-CSF alone 25 ng/ml): 8-10%

Compound: IL-2: recombinant IL-2 (Proleukin, Chiron)
- Renca tumor growth inhibition (Renca tumors): little effects; also recorded: failed to inhibit Renca tumor growth
- increase of tumor-infiltrating Mφ (F4/80+) [4]: comparable levels
